These results are taken from ChEMBL document CHEMBL5131548, “Novel Bis-phosphoglycerate Mutase Modulators for Treating Sickle Cell Disease” (ACS Med Chem Lett, 2022).

The target of the test is T1, Bisphosphoglycerate mutase (Homo sapiens, UniProt P07738).
T1 sequence (P07738 whole entry): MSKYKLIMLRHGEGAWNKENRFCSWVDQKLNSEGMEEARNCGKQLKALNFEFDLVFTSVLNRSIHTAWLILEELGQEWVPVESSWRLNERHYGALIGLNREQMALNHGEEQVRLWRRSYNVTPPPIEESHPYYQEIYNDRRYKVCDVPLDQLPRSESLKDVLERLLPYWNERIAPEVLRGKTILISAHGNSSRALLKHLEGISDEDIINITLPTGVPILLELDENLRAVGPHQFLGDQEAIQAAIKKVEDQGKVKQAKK
The test is described as follows: Inhibition of human Bis-phosphoglycerate mutase using 3-PG, GAP and NAD as substrate preincubated for 30 mins followed by substrate addition and measured after 100 mins in presence of GAPDH by resazurin reagent based fluorescence analysis. (In general: The colour change of resazurin is a common sign of viable cells or microbes.)

For `Cc1nc(COc2ncccn2)sc1-c1cccc(-c2ccc(-c3noc(=O)[nH]3)cc2)n1`, the IC50 (commonly the midpoint of a concentration-inhibition curve) was determined as 138 nM. To `Cc1nc(COCC(C)(C)O)sc1-c1cccc(-c2cc(F)c3nn[nH]c3c2F)n1` belongs 19 nM; to `Cc1cnc(OCc2nc(C)c(-c3cccc(-c4cc(F)c5nn[nH]c5c4F)n3)s2)nc1`, 21 nM. Take `Cc1nc(COc2ncccn2)sc1-c1csc(-c2cc(F)c(O)c(F)c2F)n1`: the IC50 was 159 nM. In the case of `Cc1nc(COc2cccnn2)sc1-c1csc(-c2cc(F)c3[nH]nnc3c2)n1`, the 50% inhibitory concentration (IC50) was 92 nM.
